Values quoted from earlier work as cited in patent US20100047451A1, “ACTINIC-RADIATION CURABLE INK COMPOSITION, INK SET, INK JET PRINTING APPARATUS, AND INK JET RECORDING METHOD USING ACTINIC-RADIATION CURABLE INK COMPOSITION” (SEIKO EPSON CORPORATION, priority 2008, published 2010).

conditions: measurements at 25° C.

Molecule | Viscosity [mPa · s]
Polyethylene glycol 200 dimethacrylate | 14
C=CC(=O)OCC1COC(C)(CC)O1 (stereo not drawn) [(2-Methyl-2-ethyl-1,3-dioxolan-4-yl)methyl acrylate] | 5.1

conditions: primary irritation index

Molecule | PII
Polyethylene glycol 200 dimethacrylate | 0.5
C=C(C)C(=O)OCCOC(=O)C(=C)C [Ethylene glycol dimethacrylate] | 0.6
C=C(C)C(=O)OCC(CC)(COC(=O)C(=C)C)COC(=O)C(=C)C [Trimethylolpropane trimethacrylate] | 0.8
Trimethylolpropane PO-modified triacrylate | 0.1
C=CC(=O)OCC1COC(C)(CC)O1 (stereo not drawn) [(2-Methyl-2-ethyl-1,3-dioxolan-4-yl)methyl acrylate] | 1.3
C=CC(=O)OCCCCCCCCCOC(=O)C=C [1,9-Nonanediol diacrylate] | 2.0
C=CC(=O)OCC1COC(C)(CC(C)C)O1 (stereo not drawn) [(2-Methyl-2-isobutyl-1,3-dioxolan-4-yl)methyl acrylate] | 1.0
C=CC(=O)OCCOc1ccccc1 [Phenoxyethyl acrylate] | 1.7
C=CC(=O)OCC(C)OCC(C)OCC(C)OC(=O)C=C (stereo not drawn) [Tripropylene glycol diacrylate] | 1.6
C=C(C)C(=O)OCC(O)COC(=O)C(=C)C [2-Hydroxy-1,3-dimethacryloxypropane] | 0.6
C=CC(=O)N1CCOCC1 [Acryloylmorpholine] | 0.5
Trimethylolpropane-modified triacrylate | 1.5
C=CC(=O)OCCOCCOC [Methoxy diethylene glycol monoacrylate] | 0.7
C=C(C)C(=O)OCCCCCCOC(=O)C(=C)C [1,6-Hexanediol dimethacrylate] | 0.5
C=CC(=O)O[C@@H]1C[C@H]2CC[C@]1(C)C2(C)C [Isobornyl acrylate] | 0.6
Glycerol PO-modified triacrylate | 0.8
Polyethylene glycol #400 diacrylate | 0.4
C=C(C)C(=O)OCCOCCOC(=O)C(=C)C [Diethylene glycol dimethacrylate] | 0.5
C=C(C)C(=O)OCC(C)(C)COC(=O)C(=C)C [Neopentyl glycol dimethacrylate] | 0.0
